In patent US20230064034A1, “LIGHT STABLE LIQUID DISINFECTANT COMPOSITIONS” (Onyx Lotus, LLC, priority 2021, published 2023):

Test system: E. coli
Assay: Durability test: wiped aluminum coupons, surface tested for E. coli by ASTM E-2315
Type: cell-based, Escherichia coli
Conditions: aluminum coupon wiped 40 times
Procedure: The durability test was designed to identify the number of times a surface can be wiped under pressure and prevent growth of pathogens on the surface after the light stable disinfectant was applied. The liquid composition contains 100 mL distilled water, 1.25 g EDTA, 0.01 g silver nitrate, and 0.5 g PVP K-30 having a 100 ppm concentration of silver. Five test solutions were evaluated: 10 mL liquid disinfectant composition, sodium hypochlorite, […] (peracetic acid), and Lysol. This 100 ppm solution of silver solution was loaded into a sprayer and sprayed onto 1×1'' sterilized aluminum or stainless-steel coupons. The aluminum coupons were wiped with a sterilized non-scratch scouring sponge or a soft cloth with a 1 kg weight on top of the non-scratch scouring sponge or a soft cloth then autoclaved. After the aluminum coupons had cooled to room temperature, the test solutions were sprayed onto the coupons. […]

## OCl [Sodium hypochlorite]
  reduction: 0%
